Experimental data reported in patent US20200131180A1, “POSITIVE ALLOSTERIC MODULATORS OF THE MUSCARINIC ACETYLCHOLINE RECEPTOR M1” (Vanderbilt University, priority 2018, published 2020).

Biological target: T1, human mAChR M1 (Homo sapiens, UniProt P11229)
T1 sequence (P11229 1-460): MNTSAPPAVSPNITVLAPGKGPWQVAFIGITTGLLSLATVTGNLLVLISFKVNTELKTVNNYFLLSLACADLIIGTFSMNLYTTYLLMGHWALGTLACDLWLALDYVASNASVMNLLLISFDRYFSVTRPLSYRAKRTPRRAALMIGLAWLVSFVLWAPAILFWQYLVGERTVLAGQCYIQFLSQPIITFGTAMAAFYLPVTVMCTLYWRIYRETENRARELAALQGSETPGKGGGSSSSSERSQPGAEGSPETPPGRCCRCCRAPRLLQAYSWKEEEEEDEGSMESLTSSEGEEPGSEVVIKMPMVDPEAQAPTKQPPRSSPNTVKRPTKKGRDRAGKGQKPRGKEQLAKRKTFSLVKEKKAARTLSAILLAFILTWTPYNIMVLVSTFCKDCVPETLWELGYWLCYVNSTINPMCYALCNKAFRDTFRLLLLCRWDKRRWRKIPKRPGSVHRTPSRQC
Assay: mAChR M1 cell-based functional assay (calcium mobilization, PAM activity)
Conditions: CHO-K1 cells expressing hM1, calcium flux (Fluo-4); for EC50: concentration-dependent increase in the EC20 acetylcholine response; for Emax: potentiation of EC20 acetylcholine response
Procedure, shortened: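 CHO-K1 cells stably expressing hM1, Fluo-4 AM-loaded; compounds (11-point 1:3 CRC) added, then acetylcholine at EC20 (144 s) and EC80 (230 s). Calcium flux read by FDSS fluorescence ratio; PAM activity is the concentration-dependent increase in the EC20 ACh response, Emax relative to ACh maximum; four-parameter logistic fit.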

| EC50 [nM] | Emax [%] | SMILES |
| --- | --- | --- |
|  | 46 | O=C(NC1CCOCC1)c1cc(Cc2ccc(-n3cccn3)cc2)cc2ncnn12 [compound 67, 7-(4-(1H-pyrazol-1-yl)benzyl)-N-(tetrahydro-2H-pyran-4-yl)-[1,2,4]triazolo[1,5-a]pyridine-5-carboxamide] |
| 138 | 59 | Cc1c(Cc2ccc(-c3ccn(C)n3)cc2)cc(C(=O)N[C@H]2CCCC[C@@H]2O)c2nccn12 [compound 51, N-[(1S,2S)-2-hydroxycyclohexyl]-5-methyl-6-[[4-(1-methylpyrazol-3-yl)phenyl]methyl]imidazo[1,2-a]pyridine-8-carboxamide] |
| 474 | 67 | Cn1cc(-c2cc(F)c(Cc3cc(C(=O)N[C@H]4CCOC[C@@H]4O)c4nccn4c3)c(F)c2)cn1 [compound 49, 6-[[2,6-difluoro-4-(1-methylpyrazol-4-yl)phenyl]methyl]-N-[(3R,4S)-3-hydroxytetrahydropyran-4-yl]imidazo[1,2-a]pyridine-8-carboxamide] |
| 1430 | 87 | Cc1nc(-c2ccc(Cc3cc(C(=O)N[C@H]4CCCC[C@@H]4O)c4ncnn4c3)cc2)co1 [compound 32, N-[(1S,2S)-2-hydroxycyclohexyl]-6-[[4-(2-methyloxazol-4-yl)phenyl]methyl]-[1,2,4]triazolo[1,5-a]pyridine-8-carboxamide] |
| 9360 | 31 | Cc1nc(-c2ccc(Cc3cc(C(=O)NC4CCOCC4)c4ncnn4c3)cc2)co1 [compound 35, 6-[[4-(2-methyloxazol-4-yl)phenyl]methyl]-N-tetrahydropyran-4-yl-[1,2,4]triazolo[1,5-a]pyridine-8-carboxamide] |
| 1500 | 80 | Cn1ccc(-c2ccc(Cc3cc(C(=O)N[C@@H]4CCC[C@H]4O)c4nccn4c3)cc2)n1 [compound 4, N-[(1R,2R)-2-hydroxycyclopentyl]-6-[[4-(1-methylpyrazol-3-yl)phenyl]methyl]imidazo[1,2-a]pyridine-8-carboxamide] |

The remaining lines, values behind:

| SMILES | EC50 [nM] | Emax [%] |
| --- | --- | --- |
| Cn1ccc(-c2ccc(Cc3cc(C(=O)N[C@@H]4CCOC[C@H]4O)c4nccn4c3)cc2)n1 [compound 5, N-[(3S,4R)-3-hydroxytetrahydropyran-4-yl]-6-[[4-(1-methylpyrazol-3-yl)phenyl]methyl]imidazo[1,2-a]pyridine-8-carboxamide] | 384 | 78 |
| Cn1ccc(-c2ccc(Cc3cc(C(=O)N[C@H]4CCOC[C@@H]4O)c4nccn4c3)c(F)c2)n1 [compound 53, 6-[[2-fluoro-4-(1-methylpyrazol-3-yl)phenyl]methyl]-N-[(3R,4S)-3-hydroxytetrahydropyran-4-yl]imidazo[1,2-a]pyridine-8-carboxamide] | 249 | 66 |
| Cn1ccc(-c2ccc(Cc3cc(C(=O)N[C@H]4CCOC[C@@H]4O)c4ncnn4c3)c(F)c2)n1 [compound 45, 6-[[2-fluoro-4-(1-methylpyrazol-3-yl)phenyl]methyl]-N-[(3R,4S)-3-hydroxytetrahydropyran-4-yl]-[1,2,4]triazolo[1,5-a]pyridine-8-carboxamide] | 693 | 82 |
| Cn1cc(-c2cc(F)c(Cc3cc(C(=O)N[C@H]4CCOC[C@@H]4O)c4ncnn4c3)c(F)c2)cn1 [compound 43, 6-[[2,6-difluoro-4-(1-methylpyrazol-4-yl)phenyl]methyl]-N-[(3R,4S)-3-hydroxytetrahydropyran-4-yl]-[1,2,4]triazolo[1,5-a]pyridine-8-carboxamide] | 691 | 84 |
